According to ChEMBL document CHEMBL3046800, “Tricyclic cyanoguanidines: synthesis, site of action and insecticidal activity of a novel class of reversible acetylcholinesterase inhibitors” (2002):
Calls of active or inactive are those of the source. The rule behind the calls is not given here.

What was measured:
Nephotettix cincticeps = assay: Insecticidal activity against Nephotettix cincticeps (green rice leafhopper) infested in compound-pretreated rice seedling measured 6 days post-infestation; type: functional
Peregrinus maidis = assay: Insecticidal activity against Peregrinus maidis (corn hopper) infested compound-pretreated corn seed measured 6 days post-infestation; type: functional
Nilaparvata lugens = assay: Insecticidal activity against Nilaparvata lugens (brown planthopper) infested in compound-pretreated rice seedling measured 6 days post-infestation; type: functional
[1] = target: Acetylcholinesterase (Leptinotarsa decemlineata) (UniProt Q27677); assay: Irreversible inhibition of Diabrotica undecimpunctata (Southern corn rootworm) acetylcholinesterase using acetylcholine iodine as substrate assessed as activity remaining at 1 uM incubated for 30 min prior to substrate addition by size exclusion chromatrography method
Acetylcholinesterase (Leptinotarsa decemlineata), sequence (Q27677 whole entry): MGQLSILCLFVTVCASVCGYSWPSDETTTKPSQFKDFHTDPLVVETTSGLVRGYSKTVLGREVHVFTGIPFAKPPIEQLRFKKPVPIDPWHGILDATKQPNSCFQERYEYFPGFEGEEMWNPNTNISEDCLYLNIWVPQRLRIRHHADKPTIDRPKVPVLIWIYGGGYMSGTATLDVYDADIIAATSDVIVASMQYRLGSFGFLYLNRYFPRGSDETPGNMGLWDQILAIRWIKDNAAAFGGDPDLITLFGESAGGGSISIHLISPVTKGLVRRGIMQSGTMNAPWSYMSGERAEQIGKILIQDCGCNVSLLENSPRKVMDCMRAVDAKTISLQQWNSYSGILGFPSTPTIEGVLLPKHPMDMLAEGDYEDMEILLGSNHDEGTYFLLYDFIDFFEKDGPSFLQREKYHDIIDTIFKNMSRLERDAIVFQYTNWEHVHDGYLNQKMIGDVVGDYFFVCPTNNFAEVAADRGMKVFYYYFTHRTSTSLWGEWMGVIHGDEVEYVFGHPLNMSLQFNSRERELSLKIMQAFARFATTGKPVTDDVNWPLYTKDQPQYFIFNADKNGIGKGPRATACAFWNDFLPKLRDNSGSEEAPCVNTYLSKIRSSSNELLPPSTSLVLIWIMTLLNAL

[2] = target: Acetylcholinesterase (Leptinotarsa decemlineata) (UniProt Q27677); assay: Irreversible inhibition of Diabrotica undecimpunctata (Southern corn rootworm) acetylcholinesterase using acetylcholine iodine as substrate at 300 nM measured after 120 min by DTNB-based colorimetric analysis
[3] = target: Acetylcholinesterase (Leptinotarsa decemlineata) (UniProt Q27677); assay: Inhibition of Diabrotica undecimpunctata (Southern corn rootworm) acetylcholinesterase using acetylcholine iodine as substrate at 300 nM measured after 30 min by DTNB-based colorimetric analysis
[4] = target: Ace-orthologous acetylcholinesterase (Nephotettix cincticeps) (UniProt Q9NJH6); assay: Reversible inhibition of Nephotettix cincticeps (green rice leafhopper) acetylcholinesterase using acetylcholine iodine as substrate at 2 uM measured up to 120 min by DTNB-based colorimetric analysis
Ace-orthologous acetylcholinesterase (Nephotettix cincticeps), sequence (Q9NJH6 20-677 limits assumed): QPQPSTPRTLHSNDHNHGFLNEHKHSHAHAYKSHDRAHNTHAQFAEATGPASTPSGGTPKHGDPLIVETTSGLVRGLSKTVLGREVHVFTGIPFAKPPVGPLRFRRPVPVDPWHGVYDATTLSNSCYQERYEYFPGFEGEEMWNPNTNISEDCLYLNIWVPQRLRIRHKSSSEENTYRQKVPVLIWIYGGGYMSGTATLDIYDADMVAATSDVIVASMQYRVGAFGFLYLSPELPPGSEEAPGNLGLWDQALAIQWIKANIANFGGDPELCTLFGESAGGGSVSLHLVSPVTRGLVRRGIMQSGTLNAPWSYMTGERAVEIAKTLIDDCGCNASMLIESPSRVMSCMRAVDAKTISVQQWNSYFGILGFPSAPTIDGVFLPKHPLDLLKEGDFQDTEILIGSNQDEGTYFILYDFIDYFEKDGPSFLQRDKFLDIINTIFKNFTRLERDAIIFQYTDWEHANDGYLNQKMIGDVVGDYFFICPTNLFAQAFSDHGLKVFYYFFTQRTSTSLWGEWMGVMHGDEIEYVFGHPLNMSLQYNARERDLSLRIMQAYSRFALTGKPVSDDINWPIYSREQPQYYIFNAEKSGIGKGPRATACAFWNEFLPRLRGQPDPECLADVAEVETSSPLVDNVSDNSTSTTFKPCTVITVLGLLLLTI

[5] = target: Acetylcholinesterase (Leptinotarsa decemlineata) (UniProt Q27677); assay: Reversible inhibition of Diabrotica undecimpunctata (Southern corn rootworm) acetylcholinesterase using acetylcholine iodine as substrate at 2 uM measured up to 120 min by DTNB-based colorimetric analysis
[6] = target: Acetylcholinesterase (Leptinotarsa decemlineata) (UniProt Q27677); assay: Reversible inhibition of Diabrotica undecimpunctata (Southern corn rootworm) acetylcholinesterase using acetylcholine iodine as substrate at 10 uM incubated for 30 min prior to substrate addition by size exclusion chromatrography method

Row | Structure (SMILES) | LC80 (Nephotettix cincticeps) [ppm] | LC80 (Peregrinus maidis) [ppm] | LC80 (Nilaparvata lugens) [ppm] | also measured
1 | C[C@@H]1[C@H]2Cc3ccccc3[C@@H]1N/C(=N/C#N)N2 (relative stereo) | <0.1 | <250 | <100 | 
2 | CC(=O)N1/C(=N/C#N)NC2Cc3ccccc3C1C2 (centres undefined) | <10 | >250 |  | 
3 | CC(=O)N1/C(=N/C#N)NC2(C)CC1c1ccccc1O2 (centres undefined) | <10 | <250 | <10 | 
4 | CN1/C(=N/C#N)N(C)C2(C)CC1c1ccccc1O2 (centres undefined) | >100 | >250 | <10 | 
5 | CC12CC(N/C(=N/C#N)N1)c1c(Cl)cc(Cl)cc1O2 (centres undefined) | <10 | <250 | >100 | 
6 | CCC(=O)N1/C(=N/C#N)NC2(C)CC1c1ccccc1O2 (centres undefined) | <100 | <250 | <10 | 
7 | Cc1ccc2c(c1)C1CC(C)(N/C(=N\C#N)N1)O2 (centres undefined) | <100 | >250 | >100 | 
8 | CC(C)C(=O)N1/C(=N/C#N)NC2(C)CC1c1ccccc1O2 (centres undefined) | >100 | >250 | <10 | 
9 | CC12CC(N/C(=N/C#N)N1)c1cc(Cl)cc(Cl)c1O2 (centres undefined) | >100 | >250 | >100 | 
10 | CN1/C(=N/C#N)NC2(C)CC1c1ccc(F)cc1O2 (centres undefined) |  | <10 |  | 
11 | COC(=O)CN1/C(=N/C#N)NC2(C)CC1c1ccccc1O2 (centres undefined) | <100 | <50 | <100 | 
12 | CC12CC(c3ccccc3O1)N(S(C)(=O)=O)/C(=N/C#N)N2 (centres undefined) | >100 | <50 | >100 | 
13 | CC12CC(N/C(=N/C#N)N1)c1ccc(F)cc1O2 (centres undefined) | >100 | <250 | <10 | 
14 | C[C@H]1[C@H]2N/C(=N/C#N)N[C@]1(C)Cc1ccccc12 (relative stereo) | <1 | <2.5 |  | 
15 | CCOP(=O)(OCC)Oc1ccc([N+](=O)[O-])cc1 [PARAOXON] | >100 |  | <10 | Activity [1]: < 20%; inhibition [2]: 100%; inhibition [3]: 50%
16 | CC12CC(N/C(=N/C#N)N1)c1ccccc1O2 (centres undefined) | >100 | >250 | <10 | inhibition [4]: inactive; inhibition [5]: 50%; inhibition [6]: Active
17 | CC1C2N/C(=N\C#N)NC1c1ccccc1O2 (mixture of isomers) | >100 | >250 | <100 | 
18 | CC(=O)N1/C(=N\C#N)NC2CC1Cc1ccccc12 (centres undefined) |  | <10 | >100 | 
19 | CCC12N/C(=N\C#N)NC(c3ccccc3O1)C2C (mixture of isomers) | >100 | >250 | >100 | 
20 | CC12CC(N/C(=N/C#N)N1)c1cc(OC(F)(F)F)ccc1O2 (centres undefined) | >100 | >250 | >100 | 
21 | CCN1/C(=N/C#N)NC2(C)CC1c1ccccc1O2 (centres undefined) | >100 | >250 | <10 | 
22 | CC1c2ccccc2C2CC1N/C(=N\C#N)N2 (centres undefined) | <10 | <2.5 |  | 
23 | N#C/N=C1\NC2Cc3ccccc3C(C2)N1 (centres undefined) | <10 | <2.5 | <100 | 
24 | N#C/N=C1\NC2CC(N1)c1ccccc1O2 (centres undefined) | >100 | <50 | <100 | 
25 | COC(=O)N1/C(=N/C#N)NC2(C)CC1c1ccc(F)cc1O2 (centres undefined) | <10 | <250 |  | 
26 | CC12CC(c3ccccc3O1)N(C[Si](C)(C)C)/C(=N/C#N)N2 (centres undefined) | >100 | >250 | <100 | 
27 | CCCC(=O)N1/C(=N/C#N)NC2(C)CC1c1ccccc1O2 (centres undefined) | <100 | >250 | <10 | 

Row | Structure (SMILES) | LC80 (Nephotettix cincticeps) [ppm] | LC80 (Peregrinus maidis) [ppm] | LC80 (Nilaparvata lugens) [ppm] | also measured
28 | CC12CC(N/C(=N/C#N)N1)c1cc(Cl)ccc1O2 (centres undefined) | >100 | >250 | >100 | 
29 | C#CCN1/C(=N/C#N)NC2(C)CC1c1ccccc1O2 (centres undefined) | <10 | >250 | <10 | 
30 | CC(=O)N1/C(=N/C#N)NC2(C)CC1c1ccc(F)cc1O2 (centres undefined) | >100 | >250 | >100 | 
31 | CC12CC(N/C(=N/C#N)N1)c1ccc(Cl)cc1O2 (centres undefined) | >100 | <50 | <100 | 
32 | COC(=O)N1/C(=N/C#N)NC2(C)CC1c1ccccc1O2 (centres undefined) | <10 | >250 | <10 | 
33 | CC12CC(c3ccccc3O1)N(Cc1ccccc1)/C(=N/C#N)N2 (centres undefined) | <100 | >250 | >100 | 
34 | CC12CC(N/C(=N/C#N)N1)c1cc(N)ccc1O2 (centres undefined) | <10 | >250 | >100 | 
35 | CC12CC(c3ccccc3O1)N(C(=O)C(F)(F)F)/C(=N/C#N)N2 (centres undefined) | >100 | <250 | >100 | 
36 | C[C@H]1[C@H]2N/C(=N/C#N)N[C@]1(C)Oc1ccccc12 (relative stereo) | <1 | >250 | <100 | 
37 | C[C@@H]1[C@H]2N/C(=N/C#N)N[C@]1(C)Oc1ccccc12 (relative stereo) | >100 | <50 | <1 | 
38 | CCC1C2N/C(=N\C#N)NC1c1ccccc1O2 (mixture of isomers) |  | <250 | >100 | 
39 | CCC12CC(N/C(=N/C#N)N1)c1ccccc1O2 (centres undefined) | >100 | >250 | <10 | 
40 | CN1/C(=N/C#N)NC2(C)CC1c1ccccc1O2 (centres undefined) | <100 | >250 | <10 | 
41 | C[C@H]1[C@H]2Cc3ccccc3[C@@H]1N/C(=N/C#N)N2 (relative stereo) |  | <250 | <10 | 
42 | CC12CC(N/C(=N/C#N)N1)c1cc(Br)cc(Br)c1O2 (centres undefined) | >100 | <10 | >100 | 
43 | COc1cccc2c1C1CC(C)(N/C(=N\C#N)N1)O2 (centres undefined) | >100 | <50 | >100 | 
44 | C[C@@H]1[C@H]2N/C(=N/C#N)N[C@]1(C)Cc1ccccc12 (relative stereo) |  | <10 | <1 | 
45 | C=CCN1/C(=N/C#N)NC2(C)CC1c1ccccc1O2 (centres undefined) | >100 | >250 | <100 | 
46 | Cc1cccc2c1OC1(C)CC2N/C(=N/C#N)N1 (centres undefined) | >100 | >250 | >100 | 
47 | N#C/N=C1/NC2CC(c3ccccc3)(N1)Oc1ccccc12 (centres undefined) | <10 | <50 | >100 | 
48 | COc1ccc2c(c1OC)OC1(C)CC2N/C(=N/C#N)N1 (centres undefined) | >100 | <250 | >100 | 
49 | CC12CC(N/C(=N/C#N)N1)c1cccc(F)c1O2 (centres undefined) | >100 | >250 | >100 | 
50 | CC12CC(N/C(=N/C#N)N1)c1cc([N+](=O)[O-])ccc1O2 (centres undefined) | <10 | <250 | >100 | 
51 | CC12CC(N/C(=N/C#N)N1)c1cc(C(C)(C)C)cc(C(C)(C)C)c1O2 (centres undefined) | >100 | >250 | >100 | 
52 | CC12CC(c3ccccc3O1)N(Cc1ccccn1)/C(=N/C#N)N2 (centres undefined) | >100 | <50 | <100 | 
53 | CCC1C2N/C(=N/C#N)NC1(C)Oc1ccccc12 (centres undefined) | <10 | >250 | >100 | 
